Test results: paper PMC4913735, “Non‐glycosidic compounds can stimulate both human and mouse iNKT cells” (European Journal of Immunology, 2016)

What was measured:
hCD1d C1R cells = assay: Tetrameric human iNKT‐cell TCR staining of lipid‐loaded hCD1d C1R cells (flow cytometry); assay type: cell-based; details: compared with α‐GalCer; overnight incubation
Experimental: Two analogs of ThrCer, ThrCer 6, and ThrCer 7 were synthesized. […] We first carried out measurements to assess the binding affinity of these ThrCer analogs to human iNKT‐cell TCR (Fig. 1B). Recombinant human CD1d (hCD1d) molecules were refolded in vitro with ThrCer 6 and ThrCer 7 separately and coupled to BIAcore chips, over which refolded human iNKT‐cell TCR was injected at different concentrations 34. […]
Figure 1 ThrCer 6 and ThrCer 7 are potent human iNKT‐cell agonists and display a prolonged interaction with the iNKT‐cell TCR when in complex with human CD1d molecules. […] (B) Equilibrium binding and kinetics measurements of a soluble human iNKT‐cell TCR were assessed for hCD1d molecules refolded with α‐GalCer, ThrCer, ThrCer 6, and ThrCer 7. K d values (μM) were calculated from equilibrium binding. […] After incubating overnight, the degree of iNKT‐cell recognition, assessed either (C) by using a tetrameric human iNKT‐cell TCR by flow cytometry or (D) by the addition of human iNKT cells to cultures and determining the amount of IFN‐γ released in supernatant by ELISA. (E) Human DC maturation was assessed following coculture with human iNKT cells and l μg lipids after 40 h, as determined by CD86 upregulation on DC by flow cytometry. […]

iNKT hybridoma DN32.D3 = assay: CD11c+ splenocytes from lipid‐injected Jα18 knockout mice stimulating DN32.D3 (IL‐2 ELISA); assay type: in vivo; details: 1 μg i.v.; for Decline in stimulation of DN32.D3 by CD11c+ cells, 64 h compared with 12 h post injection: Jα18 knockout mice, IL‐2
Experimental: Figure 6 Enhanced bioavailability of ThrCer 6 as compared to ThrCer and α‐GalCer. (A) Mouse BMDCs were pulsed for 6 h with 100, 10, or 1 ng/mL of indicated iNKT‐cell agonists. Cells were washed and suspended in tissue culture medium in the absence of iNKT‐cell agonists for up to 24 h. Washed BMDCs were then cocultured with the murine iNKT cell hybridoma DN32.D3. Hundred percentage activation was defined for each iNKT‐cell agonist as the IL‐2 produced by DN32.D3 cocultured with BMDCs that were left with iNKT‐cell agonists throughout the pre coculture period (30 h). Diminished bioavailability is expressed as a percentage of the maximum DN32.D3 activation by each iNKT‐cell agonist. Number of replicates = 4. (B and C) Jα18 knockout mice were injected i.v. with 1 μg of ThrCer 6, α‐GalCer, or vehicle. Twelve hours or 64 h later, CD11c^+‐purified cells were cocultured with 5 × 10^4 DN32.D3 at different ratios. (B) IL‐2 in the supernatant from coculture of DN32.D3 with CD11c^+ cells isolated after 64 h was determined by ELISA. (C) IL‐2 levels of the same culture as percentage of the IL‐2 produced by DN32.D3 coincubated with CD11c^+ cells isolated 12 h after injection of lipids. […] Significance was calculated between α‐GalCer and ThrCer 6. *p < 0.05, **p < 0.01, ***p < 0.001, ****p < 0.0001; Student's t‐test.
To rule out the possibility that the results of these experiments could be modulated by the in vivo killing of CD11c^+ cells by iNKT cells, Jα18 knockout mice, lacking iNKT cells, were injected with ThrCer 6, α‐GalCer or vehicle, and then culled 12 or 64 h later. CD11c^+ cells enriched from the spleens were then coincubated with DN32.D3 for 17 h and IL‐2 production was measured in the supernatant (Fig. 6B and C).
Levels of iNKT‐cell agonists, presented by CD1d on the surface of cells, were assessed by the amount of IL‐2 secreted by iNKT hybridoma DN32.D3 coincubated with the presenting cells for 17–24 h. […] Levels of IL‐2 in the supernatant were determined by ELISA. iNKT‐cell hybridoma DN32.D3 was kindly provided by A. Bendelac 45.

B16 melanoma cells = assay: B16 melanoma lung metastasis model; assay type: in vivo, C57BL/6 mice; details: 1 and 0.1 ng i.v.; versus ThrCer; comparable protection at 1000‐fold lower dose than ThrCer
Experimental: To this end, mice were injected i.v. with a range of doses of lipids (100, 1, 0.1 ng) and 3 days later, challenged with i.v. injected 5 × 10^5 B16 melanoma cells. Fourteen days later, the metastasis load in the lungs was quantified. […] With a reduction in lipid dose, the extent of tumor metastasis burden increased to varying degrees.
(A) Mice were immunized with 100, 1, or 0.1 ng of lipids i.v. 3 days before receiving an i.v. challenge with 5 × 10^5 B16 melanoma cells (n = 4/group). Two weeks later the lungs were removed and the number of metastatic nodules quantified as described in section “Materials and methods”. Data in the three panels are shown as mean ± SEM of tumor area as percentage of total lung area, and are representative of two independent experiments. (B) Representative lung lobe from each group is shown. Photographic images are representative of four lung lobes in each of two independent experiments.
C57BL/6 mice were challenged i.v. with syngeneic B16F10 melanoma, resuspended in PBS. A total of 5 × 10^5 cells in 200 μL were administered 3 days after administration of indicated doses of iNKT‐cell agonists (100, 1, or 0.1 ng). Two weeks after challenge, mice were killed, lungs removed, imaged and the percentage of lung tumor metastases quantified using Adobe Photoshop®.

| SMILES | Staining of lipid‐loaded hCD1d C1R cells by tetrameric human iNKT‐cell TCR (hCD1d C1R cells) | Decline in stimulation of DN32.D3 by CD11c+ cells, 64 h compared with 12 h post injection (iNKT hybridoma DN32.D3) | Activation of DN32.D3 by splenic CD11c+ cells 64 h after in vivo injection (iNKT hybridoma DN32.D3; compared with α‐GalCer‐injected mice) | Protection against B16 lung metastases at reduced lipid dose (B16 melanoma cells) |
| --- | --- | --- | --- | --- |
| CCCCCCCCCCCCCCCCCCCCCCCCCC(=O)N[C@@H](CO[C@H]1CC[C@H](O)[C@H](O)[C@H]1O)[C@H](O)[C@H](O)CCCCCCCCCCCCCC [ThrCer 6] | enhanced staining | less than 50% | more potent activators of DN32.D3 cells | far greater protection |
| CCCCCCCCCCCCCCCCCCCCCCCCCC(=O)N[C@@H](CO[C@H]1O[C@H](CO)[C@H](O)[C@H](O)[C@H]1O)[C@H](O)[C@H](O)CCCCCCCCCCCCCC [α‐GalCer, α‐galactosylceramide, reference compound] | – | more than 90% | – | far greater protection |
| CCCCCCCCCCCCCCCCCCCCCCCCCC(=O)NC(COC1CCCC(O)C(O)C1O)C(O)C(O)CCCCCCCCCCCCCC (stereo not shown) [ThrCer 7] | enhanced staining | – | – | – |
